In the assay the test system is muscles of normal healthy rats. Kind of assay: Resting muscle glycogen levels in rats after 6 weeks of oral betaine supplementation. Type of assay: in vivo, rat. Conditions: for Resting glycogen levels in rats: male Wistar rats, 60 mg betaine in 1 ml vanilla custard orally each day for 6 weeks, *P < 0.05. The protocol: Experiments were performed on 8 male Wistar rats, 250-300 gram, which were housed individually, and had free access to water and food. All experimental procedures were approved by the Institutional Animal Care and Use Committee of the Netherlands, and complied with the principles of laboratory animal care. To determine the effect of oral betaine supplementation, the betaine group (n=4) received 1 ml vanilla custard each day in combination with 60 mg betaine (Sigma Aldrich), and the control group (n=4) received 1 ml vanilla custard. After 6 weeks of supplementation, the fast extensor digitorum longus, (EDL) and slow-(soleus) muscles were removed for further biochemical analysis and frozen in liquid nitrogen. Muscles were stored at −80° C. until analysis. Thereafter, muscles were freeze-dried during 3 days at −4° C. The freeze-dried muscles were crushed to powder, 400 μl 1M HCl was added to approximately 10 mg tissue and hydrolysed at 98° C. during 2 hours. After cooling down, 400 μl 1M NaOH was added to neutralize the samples and the samples were centrifuged 5 minutes at 13,000 rpm. Glycogen content was determined fluorimetrically by a glucose kit (Roche Diagnostics) and expressed as μmol glycosyl units·g^−1.

Counter-ions that a name gives are not always drawn.

In the case of `C[N+](C)(C)CC(=O)O` [betaine, 1-carboxy-N,N,N-trimethylmethanaminium inner salt], the “Resting glycogen levels in rats” value is 120 + 4* μmol glycosyl units/g tissue (EDL (fast extensor digitorum longus) muscle) and 137 ± 16* μmol glycosyl units/g tissue (Soleus (slow) muscle). Also, the “glycogen content of the muscle cells” value (rats given vanilla custard containing betaine vs vanilla custard control) is listed as “significantly increases”.

For the origin of these results see patent US20080267941A1, “Nutrition Comprising Betaine Against Muscle Wasting” (N. V. Nutricia, priority 2005, published 2008).
